Assay results taken from patent US11179348B2, “Combination comprising pterostilbene for the treatment of cancer” (FUNDACIÓN UNIVERSIDAD CATÓLICA DE VALENCIA SAN VICENTE …, priority 2015, dated 2021).
Marks after values point to notes of the source that are not given here.

How the values were obtained:
Parameters in all cases: species or system human
[1] = test system: HepG2 hepatocellular carcinoma; experiment: In vivo growth of HepG2 liver cancer xenografts; settings: HepG2, day 35
[2] = test system: LNCaP prostate adenocarcinoma; experiment: In vivo growth of LNCaP prostate cancer xenografts; settings: day 49
[3] = test system: MCF-7 cells; experiment: GSH levels and glutathione- and oxidative stress-related enzyme activities in MCF-7 cells growing in vivo; settings: MCF-7, in vivo Pter, day 28
Experimental: (§1) To measure enzyme activity, isolated tumor cells were homogenized in 0.1 M phosphate buffer (pH 7.2) at 4° C. GCL and GSS activities were measured as described previously (Obrador, E. et al. Hepatology 35, 74-81 (2002)). GPX (selenium dependent) activity was measured as described by Flohé and Gunzler (Flohe, L. & Gunzler, W. A. Methods Enzymol 105, 114-121 (1984)) using H2O2 as a substrate. GSR activity was determined as described by Akerboom and Sies (Akerboom, T. P. et al, Bull Eur Physiopathol Respir 17 Suppl, 221-227 (1981)). GGT activity was measured as described previously (Obrador, E. et al. Hepatology 35, 74-81 (2002)). GST activity was measured using an assay kit from Sigma. TXNRD activity, defined by the concentration of sodium-lipoate (disulfide) reduced to dehydrolipoate (dithiol) per milligram protein, was measured as previously described (Javvadi, P. et al. Cancer Res 70, 1941-1950 (2010)). SOD activity was measured as described by Flohé and Otting (Flohe, L. & Otting, F. Methods Enzymol 105, 93-104 (1984).) using 2 mM cyanide in the assay medium to distinguish mangano-type enzyme (SOD2) from the cuprozinc type (SOD1). CAT activity was analyzed as described by Aebi (Aebi, H. Methods Enzymol 105, 121-126 (1984)). NOX activity was measured by chemiluminescence following the methodology of Wind et al. (Wind, S. et al. Comparative pharmacology of chemically distinct NADPH oxidase inhibitors. Br J Pharmacol 161, 885-898 (2010)). Protein concentration was determined with the Pierce BCA protein assay (Fisher Scientific, Waltham, Mass.).
(§2) GSH, GSSG, NADP^+ and NADPH Determination.
(§3) GSH and GSSG were determined, following procedures previously described (Obrador, E. et al. PLoS One 9, e96466 (2014)), by LC/MS using the same equipment described above for pterostilbene determination. Cell processing was performed according to published methodology, where rapid N-ethylmaleimide derivatization was used to prevent GSH auto-oxidation (Asensi, M. et al. Anal Biochem 217, 323-328 (1994)). NADP^+ and NADPH were quantitated using an assay kit from Sigma (St. Louis, Mo.).
Isolation of Tumor Cells from Mouse Xenografts Using Enzymatic Digestion and a double Ficoll gradient.
To maximize the amount of isolated cells, avoiding the use of RFP-transfected cells and subsequent laser microdissection, an alternative methodology was set up. To maximize cell yield and viability the following combination of enzymes was used: collagenase III (200 U/ml; Sigma-Aldrich), DNase I (200 U/ml; Sigma-Aldrich) and trypsin (5 mg/ml; Invitrogen), and a non-enzymatic dissociation buffer (NEDB, Invitrogen). Briefly, mice were killed, and tumors were removed (avoiding skin, muscle and fat) into cold culture media and processed immediately. The tumors were minced into 1-3 mm fragments, which were then incubated with the dissociation solution (see above) for 30 min at 37° C. The tumor fragments were mixed up and down every 10 min using a […] micropipette with a tip cut to a diameter adapted to tissue fragment size. After each incubation period, the fragments were filtered through a […] nylon mesh cell strainer (BD Biosciences, San Diego, Calif., USA). The released cells were centrifuged at 1200 r.p.m. for 2 min and stored in cold CO2-independent medium with 30% FCS at […]. Fresh dissociation solution was added to the remaining tissue fragments for 30 min. Dissociation was stopped when no additional cells were released. The fragments were pushed through a sieve and all cells from all incubation periods were pooled and counted.
The dissociated cells were layered onto a double Ficoll gradient (Histopaque; Sigma-Aldrich; densities 1.077 and 1.119) and spun at 700 g for 30 min at room temperature. Cells removed from both interfaces were pooled and washed two times in CO2-independent medium and stored at 4° C. Debris and red blood cell elimination was improved with the dual-density gradient. […]

[4] = test system: A2058 melanoma cells; experiment: Nrf2- and redox state-related enzyme activities and metabolites in A2058 cells growing in vivo; settings: A2058, in vivo +Pter, day 35
Experimental: Transfection of the Red Fluorescence Protein.
First the pDsRed-2 vector (Clontech Laboratories Inc., Palo Alto, Calif.) was used, as previously described for A375 melanoma cells (Mena, S. et al. J Transl Med 10, 8 (2012)), to engineer A2058, MeWo and MelJuso melanoma clones stably expressing the RFP. Isolation of A2058-RFP, MeWo-RFP or MelJuso-RFP cells from the growing xenografts was performed by laser microdissection and high-performance cell sorting as previously described in detail (Mena, S. et al. J Transl Med 10, 8 (2012)).
as §1
Measurement of H2O2 and O2^⋅−.
Quantitative measurement of H2O2 and flow cytometry determination of O2^⋅− generation were performed as previously described (Benlloch, M. et al. J Biol Chem 281, 69-79 (2006)).
as §2, §3

`COc1cc(/C=C/c2ccc(O)cc2)cc(OC)c1` [Pter, trans-3,5-dimethoxy-4′-hydroxystilbene] was tested. Which Tumor vol. [1] did it give?
The Tumor vol. was 375 ± 106* mm^3.

And the Tumor vol. [2]?
The Tumor vol. was 757 ± 194 mm^3.

And the CAT [3]?
The CAT was 0.5 ± 0.2 mU/10^6 cells.

What about the GCL [3] of the same compound?
The GCL was 166 ± 34 mU/10^6 cells.

And the GSH [3]?
Its GSH is 30.6 ± 4.2 nmol/10^6 cells.

What about the GSS [3] of the same compound?
The GSS was 25.2 ± 5.6 mU/10^6 cells.

What about the GSSG [3] of the same compound?
The GSSG was 0.3 ± 0.1 nmol/10^6 cells.

And the SOD1 [3]?
Its SOD1 is 1.0 ± 0.08 U/10^6 cells.

What about the SOD2 [3] of the same compound?
Its SOD2 is 0.12 ± 0.05 U/10^6 cells.

And the CAT [4]?
The CAT was 1.7 ± 0.3 mU/10^6 cells.

And the G6PDH [4]?
The G6PDH was 305 ± 78 mU/10^6 cells.

And the GCL [4]?
Its GCL is 58 ± 17 mU/10^6 cells.

And the GGT [4]?
The GGT was 19.6 ± 2.7 mU/10^6 cells.

What about the GPX [4] of the same compound?
The GPX was 3.9 ± 1.1 mU/10^6 cells.

What about the GSH [4] of the same compound?
The GSH was 10.5 ± 2.1 nmol/10^6 cells.

And the GSH/GSSG [4]?
Its GSH/GSSG is 35 ± 5.

What about the GSR [4] of the same compound?
The GSR was 6.1 ± 1.6 mU/10^6 cells.

And the GSS [4]?
Its GSS is 8.5 ± 2.0 mU/10^6 cells.

What about the GSSG [4] of the same compound?
Its GSSG is 0.3 ± 0.1 nmol/10^6 cells.

What about the GST [4] of the same compound?
The GST was 7.5 ± 1.3 mU/10^6 cells.

What about the H2O2 [4] of the same compound?
Its H2O2 is 0.7 ± 0.2 nmol/10^6 cells × min.

What about the IDH [4] of the same compound?
The IDH was 1.2 ± 0.4 U/10^6 cells.

What about the ME [4] of the same compound?
The ME was 43 ± 12 mU/10^6 cells.

What about the NADPH [4] of the same compound?
The NADPH was 0.06 ± 0.02 nmol/mg prot.

And the “NADPH/NADP^+” value [4]?
The value was 1.2 ± 0.3.

And the “NADP^+” value [4]?
Its value is 0.05 ± 0.01 nmol/mg prot.

And the NOX [4]?
The NOX was 177 ± 4.5 R.L.U./10^6 cells.

What about the “O2^−” value [4] of the same compound?
Its value is 3.9 ± 0.6 ΔFL1, a.u.

What about the SOD1 [4] of the same compound?
The SOD1 was 0.6 ± 0.2 U/10^6 cells.

What about the SOD2 [4] of the same compound?
The SOD2 was 0.1 ± 0.05 U/10^6 cells.

What about the TXN [4] of the same compound?
Its TXN is 0.5 ± 0.1 μg/10^6 cells.

What about the TXNRD [4] of the same compound?
The TXNRD was 0.7 ± 0.2 U/10^6 cells.
